From US8765946B2, “Methods of preparing and using quinazoline and quinoline derivatives” (priority 2006, dated 2014)

Columns and labels:
BT474 cells = test: BT-474 cell growth inhibition assay (SRB assay); format: cell-based; conditions: Homo sapiens, concentration of 3 μM, 72 h, read-out: Inhibition Percent (%)
Procedure: BT-474 Cell Growth Inhibition Assay (SRB Assay)
BT-474 human breast cancer cell lines were kindly provided by Dr. Changnian Liu, Pharmaron Beijing Co., Ltd.
BT-474 cells were cultured in 37° C., 5% CO2, saturated humidity until logarithmic phase. Discarded culture medium, washed cells once by PBS. Added 1 ml Trypsin/EDTA solution, stood at 37° C. for 5 min, allowed the cells to detach. Added culture medium, adjusted the cells density to 1×10^5 cells/ml.
Day 0, added 100 μl/well cells suspension to 96-well cell culture plates. Incubated overnight to let the cells attach completely.
Day 1, compounds (2 mM in DMSO as stock solution) was diluted to 20 μM in EMEM. Then a fourfold serial dilution was made. These diluted compounds were made as 10× reaction solutions, and the concentration of DMSO was kept at 1%.
Added 80 μl culture medium and 20 μl 10× compound reaction solution to the testing wells, or vehicle control to the control wells. Co-incubated cells with compounds for another 72 h.
Day 3, fixed cellular protein by the addition of 100 μl/well of 10% TCA (diluting from 50% TCA) at 4° C. for 1 h. Rinsed TCA using plate washer, and washed five times using distilled water. Removed the residual wash solution with a piece of absorbent paper. Added 100 μl/well 0.4% SRB solution, allowed a 15-30 min staining period. Removed the SRB, and washed the culture plates five times using 1% acetic acid. Removed the residual wash solution with a piece of absorbent paper. Air-dried the culture plates, dissolved the protein-bound dye with 100 μl/well of 10 mM Tris base solution. Shook the plates until the dye was dissolved completely.

A431 cells = test: A431 cell growth inhibition assay (MTT assay); format: cell-based; conditions: Homo sapiens, A-431, concentration of 3 μM, 72 hours, read-out: Inhibition Percent (%)
Procedure: A431 Cell Growth Inhibition Assay (MTT Assay)
A431, an epidermoid carcinoma cell line; The Cell Bank, Committee on Type Culture Collection Chinese Academy of Science, Shanghai.
Mix prepared medium DMEM and F12 in the proportion of 1:1, then add FBS to a final concentration of 10%.
Dissolved the dried compound sample with 100% DMSO to 2 mM. Then diluted the dissolved compound to 20 μM with cell complete growth medium.
Prior to the assay, cultured the A431 to logarithmic phase, and then removed medium from cell monolayers and wash the cells once with sterilized PBS. Aspriated the PBS and added 2 mL trypsin solution to cover the cell growth surface, removed 1 mL trypsin solution after soaking about 1 minute. Transferred the cell-culture plate to CO2 incubator; incubated at 37° C. for 8 minutes to allow cells to dissociate. After the cells detached, added 4 mL complete growth medium containing FBS with pipette to disperse them off and mixed gently to obtain a homogeneous cell suspension. Aspirated some of the cell suspension to a sterilized polypropylene tube, and determined the cell concentration by counting in a hematocytometer chamber under a microscope. Adjusted the cell concentration with growth medium to obtain 2.5×10^4 cells per milliliter.
Added 100 μL adjusted cell suspension to the 96-well cell-culture plate and occasionally mixed the cell suspension during the seeding process. After seeding cells, incubated the plate at 37° C. overnight with 5% CO2 in the CO2 incubator for cell attachment.
After the cell attachment, added 100 μL prepared compound solutions to the corresponding wells (add PBS to the ambient wells of the plate). The final compound concentrations ranged from 10 μM to 1.52 nM. Incubated the plate at 37° C. with 5% CO2 for 72 hours in the CO2 incubator.
After the exposure to the compound, removed the cell culture supernatant. Then added 100 μL 0.5 mg/mL MTT solution which dissolved in the growth medium without FBS. Incubated the plate at 37° C. with 5% CO2 for another 4 hours to allow the MTT reaction to proceed.
After the MTT reaction, discarded the MTT reaction solution. Added 100 μL DMSO to each well, and the plate was agitated on the plate shaker for several minutes to dissolve the formazan. Then, detected the absorbance at 490 nm using microplate reader.

Compound | inhibition at 3 µM (BT474 cells) [%] | inhibition at 3 µM (A431 cells) [%]
CCOc1cc2ncc(C#N)c(Nc3ccc(OCc4cccc(F)c4)c(Cl)c3)c2cc1NC(=O)C=C1CCN(CCOC)CC1 [Example 163, N-(4-(4-(3-fluorobenzyloxy)-3-chlorophenylamino)-3-cyano-7-ethoxyquinolin-6-yl)-2-(1-(2-methoxyethyl)piperidin-4-ylidene)acetamide] | 87 | 40
COCCOc1cc2ncc(C#N)c(Nc3ccc(OCc4ccccn4)c(Cl)c3)c2cc1NC(=O)C=C1CCNCC1 [Example 165, N-(4-(3-chloro-4-(pyridin-2-ylmethoxy)phenylamino)-3-cyano-7-(2-methoxyethoxy)quinolin-6-yl)-2-(piperidin-4-ylidene)acetamide] | 87 | 53
N#Cc1cnc2ccc(NC(=O)C=C3CCNCC3)cc2c1Nc1ccc(OCc2ccccn2)c(Cl)c1 [Example 166, N-(4-(3-chloro-4-(pyridin-2-ylmethoxy)phenylamino)-3-cyanoquinolin-6-yl)-2-(ppiperidin-4-ylidene)acetamide] | 85 | 49
COCCOc1cc2ncc(C#N)c(Nc3ccc(OCc4cccc(F)c4)c(Cl)c3)c2cc1NC(=O)C=C1CCNCC1 [Example 167, N-(4-(4-(3-fluorobenzyloxy)-3-chlorophenylamino)-3-cyano-7-(2-methoxyethoxy)quinolin-6-yl)-2-(piperidin-4-ylidene)acetamide] | 84 | 45
N#Cc1cnc2ccc(NC(=O)C=C3CCNCC3)cc2c1Nc1ccc(OCc2cccc(F)c2)c(Cl)c1 [Example 168, N-(4-(4-(3-fluorobenzyloxy)-3-chlorophenylamino)-3-cyanoquinolin-6-yl)-2-(piperidin-4-ylidene)acetamide] | 89 | 41
C#Cc1cccc(Nc2c(C#N)cnc3cc(OCCOC)c(NC(=O)C=C4CCNCC4)cc23)c1 [Example 169, N-(3-cyano-4-(3-ethynylphenylamino)-7-(2-methoxyethoxy)quinolin-6-yl)-2-(piperidin-4-ylidene)acetamide] | 58 | 92
C#Cc1cccc(Nc2c(C#N)cnc3ccc(NC(=O)C=C4CCNCC4)cc23)c1 [Example 170, N-(3-cyano-4-(3-ethynylphenylamino)quinolin-6-yl)-2-(piperidin-4-ylidene)acetamide] | 56 | 88
COCCOc1cc2ncc(C#N)c(Nc3cccc(Br)c3)c2cc1NC(=O)C=C1CCNCC1 [Example 171, N-(4-(3-bromophenylamino)-3-cyano-7-(2-methoxyethoxy)quinolin-6-yl)-2-(piperidin-4-ylidene)acetamide] | 60 | 86
N#Cc1cnc2ccc(NC(=O)C=C3CCNCC3)cc2c1Nc1cccc(Br)c1 [Example 172, N-(4-(3-bromophenylamino)-3-cyanoquinolin-6-yl)-2-(piperidin-4-ylidene)acetamide] | 61 | 84
N#Cc1cnc2ccc(NC(=O)C=C3CCNCC3)cc2c1Nc1ccc(F)c(Cl)c1 [Example 173, N-(4-(3-chloro-4-fluorophenylamino)-3-cyanoquinolin-6-yl)-2-(piperidin-4-ylidene)acetamide] | 44 | 87
